Consider one molecule from ChEMBL document CHEMBL1132582, “Bicyclic tripeptide mimetics with reverse turn inducing properties” (J Med Chem, 1999).

The target in experiment [1] is T1, Angiotensin II receptor (AT-1) type-1 (Rattus norvegicus, UniProt P29089+P25095).
T1 sequence (P29089 whole entry): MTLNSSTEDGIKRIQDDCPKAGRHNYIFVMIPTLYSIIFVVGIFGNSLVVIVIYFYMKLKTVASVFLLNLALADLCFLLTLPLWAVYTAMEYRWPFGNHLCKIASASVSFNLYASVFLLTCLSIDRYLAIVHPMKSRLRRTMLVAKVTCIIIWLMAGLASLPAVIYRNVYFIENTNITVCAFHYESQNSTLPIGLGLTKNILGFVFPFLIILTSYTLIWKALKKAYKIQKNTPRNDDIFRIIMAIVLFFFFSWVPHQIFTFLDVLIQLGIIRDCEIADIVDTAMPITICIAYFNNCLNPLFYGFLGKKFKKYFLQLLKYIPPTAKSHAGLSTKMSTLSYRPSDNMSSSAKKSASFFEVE
T1 sequence (P25095 whole entry): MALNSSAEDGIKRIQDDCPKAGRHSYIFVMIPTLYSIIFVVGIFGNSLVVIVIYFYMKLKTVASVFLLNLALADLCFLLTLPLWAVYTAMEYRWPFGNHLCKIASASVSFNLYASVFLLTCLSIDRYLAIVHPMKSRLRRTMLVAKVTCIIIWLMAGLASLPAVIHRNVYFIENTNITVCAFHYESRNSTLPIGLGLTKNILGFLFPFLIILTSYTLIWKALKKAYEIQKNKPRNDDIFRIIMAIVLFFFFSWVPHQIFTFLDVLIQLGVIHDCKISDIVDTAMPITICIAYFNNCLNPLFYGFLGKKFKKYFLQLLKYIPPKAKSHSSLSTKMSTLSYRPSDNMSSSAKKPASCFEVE
As to the kind of experiment: Compound was evaluated in a radioligand binding assay to displace [125I]-Ang II from Angiotensin II receptor, type 1 in rat liver membranes. It counts as cell membranes, Membrane.

Experiment [2] addresses T1, Angiotensin II receptor (AT-1) type-1. Nature of the experiment: Compound was evaluated in a binding assay using Chinese hamster ovary (CHO) cells stably expressing the rat Angiotensin II receptor, type 1. It counts as cell-based.

Consider `NC(N)=NCCC[C@H](NC(=O)[C@@H](N)CC(=O)O)C(=O)N[C@H]1C[C@H]2SC[C@@H](C(=O)N[C@@H](Cc3c[nH]cn3)C(=O)N3CCC[C@H]3C(=O)N[C@@H](Cc3ccccc3)C(=O)O)NC(=O)[C@H](Cc3ccc(O)cc3)N2C1=O`, for which the IC50 entry in experiment [1] and in experiment [2] was “>= 10 uM” each time.
